Test results reported in ChEMBL document CHEMBL1201862, “PubChem BioAssay data set” (2004).
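96-well plates; 48 h exposure; 5 concentrations. Endpoints by linear interpolation between flanking doses. Not reached: highest tested concentration assigned. At the GI50, growth is halved.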 Calls of active or inactive are those of the source. Cut-off read from the data, not from the text of the source: active = GI50 up to about 1.1 µM and inactive = higher.

Legend:
Assay in all cases: inhibition of tumour cell growth, NCI panel, 48 h
[1] = test system: LOX IMVI
[2] = test system: SN12C
[3] = test system: HT-29
[4] = test system: SK-MEL-5
[5] = test system: SK-MEL-2
[6] = test system: NCI-H460
[7] = test system: SF-539
[8] = test system: KM12
[9] = test system: HCC 2998
[10] = test system: M14
[11] = test system: NCI-H226
[12] = test system: SNB-75
[13] = test system: 786-0
[14] = test system: NCI-H23
[15] = test system: EKVX

Row | SMILES | GI50 [1] | GI50 [2] | GI50 [3] | GI50 [4] | GI50 [5] | GI50 [6] | GI50 [7] | GI50 [8] | GI50 [9] | GI50 [10] | GI50 [11] | GI50 [12] | GI50 [13] | GI50 [14] | GI50 [15]
1 | CC1=C2CCCC2C/C(=N/Nc2ccc([N+](=O)[O-])cc2[N+](=O)[O-])CC1 (centres undefined) | > 100 µM (inactive) | > 100 µM (inactive) | > 100 µM (inactive) | > 100 µM (inactive) | > 100 µM (inactive) | > 100 µM (inactive) | > 100 µM (inactive) | > 100 µM (inactive) | > 100 µM (inactive) | > 100 µM (inactive) | > 100 µM (inactive) | 69.7 µM (inactive) | > 100 µM (inactive) | > 100 µM (inactive) | –
2 | C[C@]12CCC(=O)C=C1CC[C@@H]1C2CC[C@]2(C)Nc3c(cnn3-c3ccccc3)CC12 (some centres undefined) | – | – | > 100 µM (inactive) | > 100 µM (inactive) | > 100 µM (inactive) | > 100 µM (inactive) | > 100 µM (inactive) | > 10 µM (inactive) | > 100 µM (inactive) | > 100 µM (inactive) | > 100 µM (inactive) | 39.1 µM (inactive) | > 100 µM (inactive) | > 100 µM (inactive) | > 100 µM (inactive)
3 | C=C1CC2(CCS(=O)(=O)c3ccccc32)OC1=O (centres undefined) | 17.3 µM (inactive) | – | 12.2 µM (inactive) | 12.4 µM (inactive) | 10.7 µM (inactive) | 18.5 µM (inactive) | 5.6 µM (inactive) | 16 µM (inactive) | 21.9 µM (inactive) | 6.62 µM (inactive) | 10.9 µM (inactive) | – | 4.32 µM (inactive) | 12 µM (inactive) | 18 µM (inactive)
4 | C/C(=N/NC(=O)C[n+]1ccccc1)C(CN(CC(C)C)CC(C)C)C(=O)Nc1ccc(C)cc1C (centres undefined) | – | 51.4 µM (inactive) | > 100 µM (inactive) | > 100 µM (inactive) | > 100 µM (inactive) | > 100 µM (inactive) | > 100 µM (inactive) | – | > 100 µM (inactive) | > 100 µM (inactive) | – | – | > 100 µM (inactive) | > 100 µM (inactive) | 45.1 µM (inactive)
5 | CCOc1ccc(NC(=O)CC2C(=O)Nc3ccccc3S2(=O)=O)cc1 (centres undefined) | > 100 µM (inactive) | 53.1 µM (inactive) | > 100 µM (inactive) | – | 75.2 µM (inactive) | > 100 µM (inactive) | 55.1 µM (inactive) | > 100 µM (inactive) | > 100 µM (inactive) | – | 34.3 µM (inactive) | 18.1 µM (inactive) | 33.7 µM (inactive) | > 100 µM (inactive) | > 100 µM (inactive)
6 | CC(C)(C)c1cc2c3c(c1)c(=O)c1cccc4c(O)c5cccc(c2=O)c5c-3c41 | 41.2 µM (inactive) | > 100 µM (inactive) | 27.7 µM (inactive) | – | 24.7 µM (inactive) | 54.1 µM (inactive) | 10 µM (inactive) | 38.1 µM (inactive) | 0.0105 µM (active) | 40.7 µM (inactive) | > 100 µM (inactive) | > 100 µM (inactive) | 84.7 µM (inactive) | 68.4 µM (inactive) | > 100 µM (inactive)
7 | COc1nc(C(=O)O)c(Cl)c(OC)c1Cl | – | > 100 µM (inactive) | > 100 µM (inactive) | > 100 µM (inactive) | > 100 µM (inactive) | > 100 µM (inactive) | > 100 µM (inactive) | > 100 µM (inactive) | > 100 µM (inactive) | > 100 µM (inactive) | – | – | > 100 µM (inactive) | > 100 µM (inactive) | > 100 µM (inactive)
8 | COCCOc1cc(C)cc(/C=C(C)/C=C/C2=C(C)CCCC2(C)C)n1 | 54.8 µM (inactive) | > 100 µM (inactive) | 28.6 µM (inactive) | 17.3 µM (inactive) | 49 µM (inactive) | 88.7 µM (inactive) | > 100 µM (inactive) | 70.6 µM (inactive) | – | 94 µM (inactive) | 32.1 µM (inactive) | > 100 µM (inactive) | > 100 µM (inactive) | 58.9 µM (inactive) | 38.2 µM (inactive)
